Values quoted from earlier work in US11311620B2, “Neoadjuvant therapy for bladder cancer” (PHOTOCURE ASA, priority 2016, dated 2022).

Assays:
bladder cancer = conditions: neoadjuvant cisplatin-containing chemotherapy
NMIBC = conditions: patients with NMIBC
MIBC = conditions: patients who had cystectomy; HAL-guided TUR prior to cystectomy; 268 consecutive patients, retrospective

N.N.[Cl][Pt][Cl] [cisplatin]
absolute improvement in survival at 5 years (bladder cancer): 5%

CCCCCCOC(=O)CCC(=O)CN [HAL, n-hexyl 5-amino-4-oxo-pentanoate]
rate of residual tumor after TUR (NMIBC): reduced the rate of residual tumor | recurrence free survival (RFS) rates compared to white light TUR alone (NMIBC): superior recurrence free survival (RFS) rates | detection of papillary tumors and flat carcinoma-in-situ (CIS) lesions (NMIBC; compared to white light alone): improved detection | 3-year overall survival (OS) (MIBC): 65.0% | 3-year recurrence-free survival (RFS) (MIBC): 69.8%
